Four compounds from patent US20240425574A1, “ANTI-PDGF-B ANTIBODIES AND PHARMACEUTICAL COMPOSITION THEREOF” (Regeneron Pharmaceuticals, Inc., priority 2021, published 2024) can be followed below.

One assay has as its system Human PDGF-AA. The experiment in a line: FLIPR calcium flux in PASMC (Example 17). The class given is cell-based. The following applies: 3 nM PDGF-AA constant. As to the method:
(§1) Upon reaching 100% confluency within each well, PDGF driven calcium flux was assessed via the FLIPR® Calcium 5 Assay Kit on the FLIPR Tetra System (Molecular Devices) following the manufacturer's protocol. In brief, complete media was replaced with 50 μL assay media (DMEM-0.1% BSA-1× Penicillin/Streptomycin/L-Glutamine). The Calcium 5 dye was then reconstituted in the supplied buffer in the presence of probenecid. […] Human PDGF-AA, PDGF-BB and PDGF-DD serial dilutions and inhibitory constants were generated on separate dosing plates. A 0.5 nM concentration of PDGF-BB, 1 nM concentration of PDGF-DD and a 3 nM concentration of PDGF-AA were chosen as constants to assess antibody and small molecule inhibition. […] Antibodies were pre-incubated with PDGF proteins for 30 minutes before addition onto the cells via the FLIPR tetra system. […] These calcium traces were analyzed for their Max-Min values using the SoftMax Pro Software (Molecular Devices).
Background: A change in cytosolic calcium serves as a functional read-out for many receptors and channels.

For assay [1], the system named is monocrotaline rats. The experiment in a line: 4 weeks Monocrotaline PAH rats, preventive treatment (Example 10 study 1). It counts as in vivo, rat. As to the method: Six to seven weeks old male Sprague Dawley rats were used. Rats were separated into treatment groups such that body weights were similar among different groups. […] Standard of care group was orally administered macitentan at 30 mg/kg daily for 28 days. At day one, rats were subcutaneously administered either 40 mg/kg of monocrotaline or 5 mL/kg of saline. By the end of day 28, right ventricular systolic pressure (RVSP) was measured by right heart catheterization and RV hypertrophy was calculated by Fulton index as the weight ratio of RV and (LV+septum). In study 2, rats were subcutaneously administered either 60 mg/kg of monocrotaline or 5 mL/kg of saline. […] Body weight change from day 0-35 were used for general toxicity assessment and animal mortality was calculated by day 35.
Rats were anesthetized with isoflurane and were kept at approximately 37° C. using a heated platform (Heated Hard Pad 1, Braintree Scientific) and circulating heated water pump (T/Pump Classic, Gaymar Industries). The neck area for each rat was prepared for surgery by depilating over the right common Carotid artery and right Jugular vein. An incision was made and the right Jugular vein was isolated with care as to not damage the Carotid artery and/or the Vagus nerve. A piece of 5-0 silk suture was placed under the isolated Jugular vein to allow for retraction of the vessel cranially, then a 23-gauge needle was used to introduce a hole into the Jugular vein. A pressure catheter (Micro-tip catheter transducer SPR-1000, Millar Instruments, Inc.) was inserted into the opening of the Jugular vein and advanced past the right atrium into the right ventricle. The catheter was connected to pressure/volume instrument (MPVS-300, Millar Instruments, Inc.) that measured heart rate as well as both diastolic and systolic right ventricular pressures. These parameters were digitally acquired using a data acquisition system (PowerLab 4/35, AD Instruments). LabChart Pro 7.0 software (AD Instruments) was used to analyze right ventricular pressures. Readings were quantified from a 60 second interval of the pressure tracing (following a 2 minute period of recording to allow for pressure stabilization). The parameters analyzed were right ventricular systolic pressures (RVSP), heart rate (HR) and rate of right ventricular pressure rise (dP/dt max).
After the in vivo hemodynamic measurements, animals were euthanized by exsanguinations under anesthesia and then RV free wall, left ventricle (LV) and septum tissue were harvested and weighted. RV hypertrophy was calculated by Fulton index as the weight ratio of RV and (LV+septum). Then, RV tissue was saved frozen (−80° C.) for biochemical analyses.

The subject of assay [2] is monocrotaline rats. Put plainly: Study #2, 5 weeks Monocrotaline severe PAH rats survival (Example 19). It counts as in vivo, rat. The procedure:
In order to evaluate the effect of two inhibitory anti-PDGF-B antibodies in the rat monocrotaline model of pulmonary arterial hypertension, 2 studies were performed: study #1 was performed on 4-week Monocrotaline PAH Rats with Preventive Drug Treatment; and study #2 was performed on 5-weeks Monocrotaline Severe PAH Rats Survival with Therapeutic Drug Treatment (Tables 26-27).
Six to seven weeks old male Sprague Dawley rats were used. Rats were separated into treatment groups such that body weights were similar among different groups. […] On day one, rats were subcutaneously administered either 40 mg/kg of monocrotaline or 5 mL/kg or saline as control. On day 28, right ventricular systolic pressure (RVSP) was measured by right heart catheterization and RV hypertrophy was calculated by Fulton index as the weight ratio of RV to (LV+septum). In study #2, rats were subcutaneously administered either 60 mg/kg of monocrotaline or 5 mL/kg of saline. […] Small molecule group was orally administered macitentan at 30 mg/kg daily. Body weight change from day 0-35 were used for general toxicity assessment and animal mortality and median survival time were calculated by day 35.

Assay [3] deals with hypoxia/sugen PAH mice. It counts as in vivo, mouse. The settings on record: Hypoxia/Sugen Mice - Therapeutic dose response; dose mg/kg: H4H13145P 1, Macitentan 30, REGN2176 25. The procedure: For the second study (Study 2), 12 to 14 weeks old male C57/BL mice, (Taconic) were used for the studies. Mice were separated into treatment groups by weight such that starting body weights were similar among different groups. […] Mice in hypoxia chamber were given VEGF receptor inhibitor Sugen5146 at 20 mg/kg subcutaneously once a week for 6 weeks. The mice were administered antibodies starting on day 21 for 3 weeks as outlined in Table 12. By the end of week 6, right ventricular systolic pressure (RVSP) was measured by right heart catheterization and RV hypertrophy was calculated by Fulton index as the weight ratio of RV and (LV+septum). […]
Mice were anesthetized with isoflurane and were kept at approximately 37° C. using a heated platform (Heated Hard Pad 1, Braintree Scientific) and circulating heated water pump (T/Pump Classic, Gaymar Industries). […] The catheter was connected to pressure/volume instrument (MPVS-300, Millar Instruments, Inc.) that measured heart rate as well as both diastolic and systolic right ventricular pressures. […] Readings were quantified from a 60 second interval of the pressure tracing (following a 2 minute period of recording to allow for pressure stabilization). The parameters analyzed were right ventricular systolic pressures (RVSP), heart rate (HR) and rate of right ventricular pressure rise (dP/dt max). […]

Assay [4] has as its system hypoxia/sugen PAH mice. Put plainly: Hypoxia/Sugen PAH mice, therapeutic treatment (Study 1). The settings on record: dose mg/kg: H4H13145P 25, Macitentan 30, REGN2176 25. It counts as in vivo, mouse. The procedure: For the first study, 14 to 16 weeks old male humanized PDGFRβ^hu-hu mice, (MAID #1639) were used. Mice were separated into treatment groups by weight such that starting body weights were similar among different groups. […] Mice in hypoxia chamber were given VEGF receptor inhibitor Sugen5146 at 20 mg/kg subcutaneously once a week for 6 weeks. The mice were administered antibodies starting on day 21 for 3 weeks as outlined in Table 11. […] Mice were anesthetized with isoflurane and were kept at approximately 37° C. using a heated platform (Heated Hard Pad 1, Braintree Scientific) and circulating heated water pump (T/Pump Classic, Gaymar Industries). The neck area for each mouse was prepared for surgery by depilating over the right common Carotid artery and right Jugular vein. An incision was made, and the right Jugular vein was isolated with care as to not damage the Carotid artery and/or the Vagus nerve. […] The catheter was connected to pressure/volume instrument (MPVS-300, Millar Instruments, Inc.) that measured heart rate as well as both diastolic and systolic right ventricular pressures. […] The parameters analyzed were right ventricular systolic pressures (RVSP), heart rate (HR) and rate of right ventricular pressure rise (dP/dt max). […] RV hypertrophy was calculated by Fulton index as the weight ratio of RV and (LV+septum). […]

Assay [5] has as its target T1, PDGF-BB (Homo sapiens, UniProt P01127). Put plainly: IncuCyte proliferation of PASMC (Example 17). It counts as cell-based. The following applies: IncuCyte cell confluence at day 6. Also noted: purchased R&D Systems 220-GMP.
Procedure: For calcium flux and proliferation assays, primary Human Pulmonary Smooth Muscle Cells were seeded onto 96-well assay plates at a cell density of 10,000/well and 2,000/well respectively. The smooth muscle cells were cultured in supplier recommended smooth muscle media in a humidified incubator at 37° C. in 5% CO2.
Proliferation was assessed via the IncuCyte live cell imaging system (Essen BioScience). Following overnight plating, the complete media was replaced with serum free smooth muscle media supplemented with 0.1% BSA. […] Plates were imaged every 3 hours over the course of 7 days and proliferation was determined by measuring cell confluence in the well at day 6 via the IncuCyte Base Analysis software (Sartorius).
For another assay, the system named is Human PDGF-DD. The settings on record: read-out: IC50 Calcium Flux, PDGF-DD; PASMC; 1 nM PDGF-DD constant. As to the method:
as §1

In the next assay the test system is PDGF-AA. The following applies: read-out: IC50 Proliferation, PDGF-AA; PASMC; IncuCyte cell confluence at day 6.
For assay [6], the target named is T1, PDGF-BB. The experiment in a line: FLIPR calcium flux in PASMC (Example 17). The class given is cell-based. Also noted: purchased R&D Systems 220-GMP. The procedure:
as §1

The next assay relates to PDGF-DD. The settings on record: read-out: IC50 Proliferation, PDGF-DD; PASMC; IncuCyte cell confluence at day 6.
Setting [7] is: Monocrotaline Rat - Prevention, dose mg/kg: H4H13145P 25, Macitentan 30, Sotatercept 25.
The mark [8] stands for this setting: MCT 60 mg/kg rats, treatment from day 14, antibody SC twice per week, Macitentan 30 mg/kg daily gavage.

Read-outs that look alike come from different tables or passages of the source. Marks after values point to notes of the source that are not given here.

T1 sequence (P01127 82-190 limits assumed): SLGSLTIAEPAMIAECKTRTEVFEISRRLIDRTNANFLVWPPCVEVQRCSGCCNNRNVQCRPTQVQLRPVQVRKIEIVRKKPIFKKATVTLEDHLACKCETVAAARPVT

With `Cc1ccc(NC(=O)c2ccc(CN3CCN(C)CC3)cc2)cc1Nc1nccc(-c2cccnc2)n1` [Imatinib], the IC50 in the assay with Human PDGF-AA turned out to be 270 nM.
As to `CCCNS(=O)(=O)Nc1ncnc(OCCOc2ncc(Br)cn2)c1-c1ccc(Br)cc1` [Macitentan, reference compound], the “% reduction in RV hypertrophy” value in the assay on monocrotaline rats [1] (setting [7]) is listed as “trend”. Besides, the “lessening of right ventricular hypertrophy (Fulton Index)” value in the assay with monocrotaline rats [1] (monocrotaline 40 mg/kg, antibody 25 mg/kg SC 2x/week, Macitentan 30 mg/kg P.O. daily, versus isotype control) is on record as “failed to reduce”. For the same compound, the “right ventricular systolic pressure elevation” value in the assay with monocrotaline rats [1] (monocrotaline 40 mg/kg, antibody 25 mg/kg SC 2x/week, Macitentan 30 mg/kg P.O. daily, week 4) is “significantly reduced”. Also, in the assay with monocrotaline rats [2] (setting [8]), the “Death # by day 35” value amounted to 11, the “Survival rate by day 35” value came out at 0%* and the “median survival” value was determined as 20 days. Moreover, the survival entry in the assay with monocrotaline rats [2] (monocrotaline 60 mg/kg, antibody 25 mg/kg 2 times a week from day 14, macitentan 30 mg/kg daily, day 35) was “failed to prolong survival”. In addition, in the assay on hypoxia/sugen PAH mice [3], the “% reduction in RV hypertrophy” value is “trend” and the “Reduction in RVSP” value is on record as 19-25 mmHg. Also, in the assay with hypoxia/sugen PAH mice [4], the “% reduction in RV hypertrophy” value is “trend” and the “Reduction in RVSP” value is 19-25 mmHg.
Consider `COc1ccc(-c2cncc(N[C@@H](C)c3cccc(NC(=O)c4cncc(C)c4)c3)n2)cc1OC` [Seralutinib], for which the IC50 on PDGF-BB [5] was 6 nM; in the assay on Human PDGF-DD, 27 nM; in the assay with PDGF-AA it was 9 nM; on PDGF-BB [6] (PASMC, 0.5 nM PDGF-BB constant, read-out: IC50 Calcium Flux, PDGF-BB), 10 nM; on PDGF-BB [6] (range over PDGF-AA, PDGF-DD, PDGF-BB driven calcium flux and proliferation, read-out: IC50 values), 6 to 27 nM; in the assay with Human PDGF-AA, 10 nM. In the assay with PDGF-DD, the IC50 was 6 nM. In addition, the inhibition in words result on PDGF-BB [6] (PDGF-AA, PDGF-DD and PDGF-BB driven calcium flux and proliferation) was “fully inhibited”.
For “Sotatercept: ACVRIIa-Fc, vessel remodeling comparator drug”, the “Reduction in RVSP” value with monocrotaline rats [1] (setting [7]) amounted to 14 mmHg.
